Legend:
[1] = Elimination half life in C3H/J mouse at 5 mg/kg, po by LC-MS/MS analysis; assay type: ADME, organism-based; settings: in vivo, read-out: beta t1/2 (converted)
[2] = Elimination half life in C57BL/6 mouse at 2 mg/kg, iv by LC-MS/MS analysis; assay type: ADME, organism-based; settings: in vivo, read-out: beta t1/2 (converted)
[3] = Volume of distribution at steady state in C57BL/6 mouse at 2 mg/kg, iv by LC-MS/MS analysis; assay type: ADME, organism-based; settings: in vivo, read-out: Vdss
[4] = Dose normalized AUC (0 to 24 hrs) in C57BL/6 mouse at 30 mg/kg, po by LC-MS/MS analysis; assay type: ADME, organism-based; settings: in vivo
Hepatitis B virus [5] = experiment: Antiviral activity against HBV infected in human primary hepatocyte cells assessed as reduction in HBV cccDNA production by measuring inhibition of HBsAg secretion measured after 48 hrs by ELISA; assay type: functional, organism-based
[6] = Metabolic stability in human microsomes assessed as clearance; assay type: ADME, Microsome; settings: read-out: CLH
[7] = Clearance in C57BL/6 mouse at 2 mg/kg, iv by LC-MS/MS analysis; assay type: ADME, organism-based; settings: in vivo
[8] = Aqueous solubility of the compound; assay type: physicochemical; settings: buffer
Hepatitis B virus [9] = experiment: Antiviral activity against HBV infected in human HepDES19 cells assessed as reduction in HBV cccDNA production by measuring inhibition of HBeAg secretion incubated for 5 days by ELISA; assay type: functional, organism-based; settings: HepDES19, 120 h
[10] = Dose normalized AUC (0 to 24 hrs) in C57BL/6 mouse at 2 mg/kg, iv by LC-MS/MS analysis; assay type: ADME, organism-based; settings: in vivo
[11] = Oral bioavailability in C57BL/6 mouse at 5 mg/kg by LC-MS/MS analysis; assay type: ADME, organism-based; settings: in vivo
[12] = Cmax in C57BL/6 mouse at 30 mg/kg, po by LC-MS/MS analysis; assay type: ADME, organism-based; set-up: dose 30 mg/kg, route po; settings: in vivo
[13] = AUC (0 to infinity) in C57BL/6 mouse at 2 mg/kg, iv by LC-MS/MS analysis; assay type: ADME, organism-based; set-up: time infinity, dose 2 mg/kg, route iv; settings: in vivo
[14] = Cmax in C57BL/6 mouse at 5 mg/kg, po by LC-MS/MS analysis; assay type: ADME, organism-based; set-up: dose 5 mg/kg, route po; settings: in vivo
[15] = Tmax in C3H/J mouse plasma at 5 mg/kg, po by LC-MS/MS analysis; assay type: ADME, organism-based
[16] = AUC (0 to infinity) in C57BL/6 mouse at 30 mg/kg, po by LC-MS/MS analysis; assay type: ADME, organism-based; set-up: time infinity, dose 30 mg/kg, route po; settings: in vivo
[17] = Tmax in C57BL/6 mouse at 5 mg/kg, po by LC-MS/MS analysis; assay type: ADME, organism-based; settings: in vivo
[18] = Elimination half life in C57BL/6 mouse at 5 mg/kg, po by LC-MS/MS analysis; assay type: ADME, organism-based; settings: in vivo, read-out: beta t1/2 (converted)
Hepatitis B virus [19] = experiment: Antiviral activity against HBV infected in human HepG2 cells assessed as reduction in HBeAg secretion incubated for 5 days by counter screen assay; assay type: functional, organism-based; settings: HepG2, 120 h
[20] = Elimination half life in C57BL/6 mouse at 30 mg/kg, po by LC-MS/MS analysis; assay type: ADME, organism-based; settings: in vivo, read-out: beta t1/2 (converted)
[21] = Tmax in C57BL/6 mouse at 30 mg/kg, po by LC-MS/MS analysis; assay type: ADME, organism-based; settings: in vivo
[22] = Octanol-aqueous buffer distribution coefficient, log D of the compound at pH 7.4 by CAMDIS assay; assay type: physicochemical
[23] = Dose normalized Cmax in C57BL/6 mouse at 5 mg/kg, po by LC-MS/MS analysis; assay type: ADME, organism-based; settings: in vivo
[24] = Permeability of the compound by PAMPA analysis; assay type: ADME; settings: read-out: permeability
[25] = Dose normalized Cmax in C3H/J mouse at 5 mg/kg, po by LC-MS/MS analysis; assay type: ADME, organism-based; settings: in vivo
[26] = Dose normalized AUC (0 to 24 hrs) in C3H/J mouse at 5 mg/kg, po by LC-MS/MS analysis; assay type: ADME, organism-based; settings: in vivo
[27] = AUC (0 to infinity) in C3H/J mouse at 5 mg/kg, po by LC-MS/MS analysis; assay type: ADME, organism-based; set-up: time infinity, dose 5 mg/kg, route po; settings: in vivo
[28] = AUC (0 to infinity) in C57BL/6 mouse at 5 mg/kg, po by LC-MS/MS analysis; assay type: ADME, organism-based; set-up: time infinity, dose 5 mg/kg, route po; settings: in vivo
[29] = Cmax in C3H/J mouse plasma at 5 mg/kg, po by LC-MS/MS analysis; assay type: ADME, organism-based; set-up: dose 5 mg/kg, route po
[30] = Metabolic stability in mouse hepatocytes assessed as intrinsic clearance; assay type: ADME, cell-based, Hepatocyte; settings: read-out: CLH
[31] = Dose normalized AUC (0 to 24 hrs) in C57BL/6 mouse at 5 mg/kg, po by LC-MS/MS analysis; assay type: ADME, organism-based; settings: in vivo

O=C(O)C1CCN(c2ccc3c(=O)c4cccc(Cl)c4oc3c2)C1 (racemic)
half-life [1]: 1.11 h | half-life [2]: 2.1 h | Vd [3]: 0.65 L/kg | AUC/dose [4]: 151 ng·h/mL | IC50 (Hepatitis B virus [5]): 1340 nM | CLint scaled [6]: 6.2 mL/min/kg | clearance [7]: 17.6 mL/min/kg | solubility [8]: < 435 µg/mL | IC50 (Hepatitis B virus [9]): 1740 nM | AUC/dose [10]: 937 (ng·h/mL)/(mg/kg) | bioavailability [11]: 56% | Cmax [12]: 17300 ng/mL | AUC(0-inf) [13]: 1900 ng·h/mL | Cmax [14]: 1650 ng/mL | Tmax [15]: 0.5 h | AUC(0-inf) [16]: 31400 ng·h/mL | Tmax [17]: 0.5 h | half-life [18]: 10.2 h | IC50 (Hepatitis B virus [19]): > 50000 nM | half-life [20]: 4.26 h | Tmax [21]: 0.5 h | logD [22]: 1.12 | Cmax/dose [23]: 331 ng/mL | Papp [24]: 2.27 ×10⁻⁶ cm/s | Cmax/dose [25]: 116 ng/mL | AUC/dose [26]: 171 (ng·h/mL)/(mg/kg) | AUC(0-inf) [27]: 761 ng·h/mL | AUC(0-inf) [28]: 2680 ng·h/mL | Cmax [29]: 580 ng/mL | CLint scaled [30]: 32.3 mL/min/kg | AUC/dose [31]: 500 ng·h/mL

— ChEMBL document CHEMBL5137099, “Discovery of Novel cccDNA Reducers toward the Cure of Hepatitis B Virus Infection” (J Med Chem, 2022)
